From patent US9409866B2, “Pyridine-2-amides useful as CB2 agonists” (Hoffmann-La Roche Inc., priority 2012, dated 2016)
Read-outs that look alike come from different tables or passages of the source.

What was measured:
human CB1 receptors = human CB1 receptors (Homo sapiens (Human), UniProt P21554); assay: functional cAMP assay, CHO cells expressing human CB1; type: cell-based
Experimental: (§1) CHO cells expressing human CB1 or CB2 receptors are seeded 17-24 hours prior to the experiment 50.000 cells per well in a black 96 well plate with flat clear bottom (Corning Costar #3904) in DMEM (Invitrogen No. 31331), 1×HT supplement, with 10% fetal calf serum and incubated at 5% CO2 and 37° C. in a humidified incubator. The growth medium was exchanged with Krebs Ringer Bicarbonate buffer with 1 mM IBMX and incubated at 30° C. for 30 min. Compounds were added to a final assay volume of 100 μl and incubated for 30 min at 30° C. Using the cAMP-Nano-TRF detection kit the assay (Roche Diagnostics) was stopped by the addition of 50 μl lysis reagent (Tris, NaCl, 1.5% Triton X100, 2.5% NP40, 10% NaN3) and 50 μl detection solutions (20 μM mAb Alexa700-cAMP 1:1, and 48 μM Ruthenium-2-AHA-cAMP) and shaken for 2 h at room temperature. The time-resolved energy transfer is measured by a TRF reader (Evotec Technologies GmbH), equipped with a ND:YAG laser as excitation source. The plate is measured twice with the excitation at 355 nm and at the emission with a delay of 100 ns and a gate of 100 ns, total exposure time 10 s at 730 (bandwidth 30 nm) or 645 nm (bandwidth 75 nm), respectively. The FRET signal is calculated as follows: FRET=T730-Alexa730-P(T645-B645) with P=Ru730-B730/Ru645-B645, where T730 is the test well measured at 730 nM, T645 is the test well measured at 645 nm, B730 and B645 are the buffer controls at 730 nm and 645 nm, respectively. cAMP content is determined from the function of a standard curve spanning from 10 μM to 0.13 nM cAMP.
(§2) EC50 values were determined using Activity Base analysis (ID Business Solution, Limited). The EC50 values for a wide range of cannabinoid agonists generated from this assay were in agreement with the values published in the scientific literature.

human CB2 receptors = human CB2 receptors (Homo sapiens (Human), UniProt P34972); assay: functional cAMP assay, CHO cells expressing human CB2; type: cell-based
Experimental: as §1, §2

[1] = Human CB1 EC50 (uM), functional cAMP assay, CHO cells expressing human CB1
[2] = read-out: Human CB1 EC50, functional cAMP assay, CHO cells expressing human CB1

human CB2 receptors, sequence (P34972 whole entry): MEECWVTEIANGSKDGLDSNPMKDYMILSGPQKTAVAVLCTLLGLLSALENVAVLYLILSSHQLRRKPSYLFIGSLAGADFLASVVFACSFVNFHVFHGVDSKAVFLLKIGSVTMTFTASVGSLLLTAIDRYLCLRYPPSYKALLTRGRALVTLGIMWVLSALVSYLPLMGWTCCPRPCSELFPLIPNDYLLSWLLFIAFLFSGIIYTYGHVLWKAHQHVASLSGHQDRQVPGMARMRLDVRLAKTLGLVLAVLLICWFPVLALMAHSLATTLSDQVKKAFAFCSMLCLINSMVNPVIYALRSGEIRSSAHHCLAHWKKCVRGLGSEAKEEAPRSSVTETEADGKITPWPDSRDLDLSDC
human CB1 receptors, sequence (P21554 whole entry): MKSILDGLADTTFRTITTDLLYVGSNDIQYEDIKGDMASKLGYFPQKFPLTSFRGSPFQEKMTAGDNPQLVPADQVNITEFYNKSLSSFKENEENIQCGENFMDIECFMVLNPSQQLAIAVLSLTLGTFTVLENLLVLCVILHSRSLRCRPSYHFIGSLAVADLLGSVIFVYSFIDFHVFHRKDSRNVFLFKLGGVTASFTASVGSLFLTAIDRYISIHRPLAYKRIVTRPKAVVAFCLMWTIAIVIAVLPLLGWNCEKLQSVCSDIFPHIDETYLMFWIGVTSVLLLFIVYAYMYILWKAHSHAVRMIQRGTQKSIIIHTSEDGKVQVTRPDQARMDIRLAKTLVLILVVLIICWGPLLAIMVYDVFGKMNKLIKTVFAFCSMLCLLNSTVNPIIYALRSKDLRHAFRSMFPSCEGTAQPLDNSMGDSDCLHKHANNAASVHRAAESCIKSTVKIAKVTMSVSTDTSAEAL

| SMILES | EC50 (human CB1 receptors; [1]) | EC50 (human CB2 receptors; Human CB2 EC50 (uM)) | EC50 (human CB1 receptors; [2]) | EC50 (human CB1 receptors) | EC50 (human CB2 receptors; read-out: Human CB2 EC50) |
| --- | --- | --- | --- | --- | --- |
| Cc1nc([C@@](C)(NC(=O)c2cc(OCC(F)(F)F)c(N3CC(F)(F)C3)cn2)C2CC2)no1 (single isomer, unassigned) [Example 88, 5-(3,3-Difluoro-azetidin-1-yl)-4-(2,2,2-trifluoro-ethoxy)-pyridine-2-carboxylic acid [1-cyclopropyl-1-(5-methyl-[1,2,4]oxadiazol-3-yl)-ethyl]-amide] | 1.79 µM | 0.0105 µM | – | – | – |
| Cc1nc([C@@](C)(CC2CC2)NC(=O)c2cc(OCC(F)(F)F)c(N3CC(F)(F)C3)cn2)no1 (single isomer, unassigned) [Example 91, 5-(3,3-Difluoro-azetidin-1-yl)-4-(2,2,2-trifluoro-ethoxy)-pyridine-2-carboxylic acid [2-cyclopropyl-1-methyl-1-(5-methyl-[1,2,4]oxadiazol-3-yl)-ethyl]-amide] | > 10 µM | 0.0303 µM | – | – | – |
| Cc1nc([C@](C)(CC2CC2)NC(=O)c2cc(OCC(F)(F)F)c(N3CC(F)(F)C3)cn2)no1 (single isomer, unassigned) [Example 92, 5-(3,3-Difluoro-azetidin-1-yl)-4-(2,2,2-trifluoro-ethoxy)-pyridine-2-carboxylic acid [2-cyclopropyl-1-methyl-1-(5-methyl-[1,2,4]oxadiazol-3-yl)-ethyl]-amide] | > 10 µM | 0.0214 µM | – | – | – |
| Cc1nc([C@@](C)(CC2CC2)NC(=O)c2cc(OCC(F)(F)F)c(Cl)cn2)no1 (single isomer, unassigned) [Example 93, 5-Chloro-4-(2,2,2-trifluoro-ethoxy)-pyridine-2-carboxylic acid [2-cyclopropyl-1-methyl-1-(5-methyl-[1,2,4]oxadiazol-3-yl)-ethyl]-amide] | > 10 µM | 0.0651 µM | – | – | – |
| Cc1nc([C@](C)(CC2CC2)NC(=O)c2cc(OCC(F)(F)F)c(Cl)cn2)no1 (single isomer, unassigned) [Example 94, 5-Chloro-4-(2,2,2-trifluoro-ethoxy)-pyridine-2-carboxylic acid [2-cyclopropyl-1-methyl-1-(5-methyl-[1,2,4]oxadiazol-3-yl)-ethyl]-amide] | > 10 µM | 0.0747 µM | – | – | – |
| Cc1nc([C@@](C)(CS(C)(=O)=O)NC(=O)c2cc(OCC(F)(F)F)c(C3CC3)cn2)no1 (single isomer, unassigned) [Example 98, 5-Cyclopropyl-4-(2,2,2-trifluoro-ethoxy)-pyridine-2-carboxylic acid [2-methanesulfonyl-1-methyl-1-(5-methyl-[1,2,4]oxadiazol-3-yl)-ethyl]-amide] | > 10 µM | 0.0706 µM | – | – | – |
| Cc1nc([C@](C)(CS(C)(=O)=O)NC(=O)c2cc(OCC(F)(F)F)c(C3CC3)cn2)no1 (single isomer, unassigned) [Example 99, 5-Cyclopropyl-4-(2,2,2-trifluoro-ethoxy)-pyridine-2-carboxylic acid [2-methanesulfonyl-1-methyl-1-(5-methyl-[1,2,4]oxadiazol-3-yl)-ethyl]-amide] | > 10 µM | 0.104 µM | – | – | – |
| Cc1nc([C@@](C)(CC(C)(C)C)NC(=O)c2cc(OCC(F)(F)F)c(C3CC3)cn2)no1 (single isomer, unassigned) [Example 104, 5-Cyclopropyl-4-(2,2,2-trifluoro-ethoxy)-pyridine-2-carboxylic acid [1,3,3-trimethyl-1-(5-methyl-[1,2,4]oxadiazol-3-yl)-butyl]-amide] | > 10 µM | 0.0298 µM | – | – | – |
| Cc1nc([C@](C)(CC(C)(C)C)NC(=O)c2cc(OCC(F)(F)F)c(C3CC3)cn2)no1 (single isomer, unassigned) [Example 105, 5-Cyclopropyl-4-(2,2,2-trifluoro-ethoxy)-pyridine-2-carboxylic acid [1,3,3-trimethyl-1-(5-methyl-[1,2,4]oxadiazol-3-yl)-butyl]-amide] | 0.33 µM | 0.0023 µM | – | – | – |
| Cc1nc(C(C)(CC2CC2)NC(=O)c2cc(OCC(F)(F)F)c(C3CCC3)cn2)no1 (single isomer, unassigned) [Example 116, 5-cyclobutyl-N-[1-cyclopropyl-2-(5-methyl-1,2,4-oxadiazol-3-yl)propan-2-yl]-4-(2,2,2-trifluoroethoxy)pyridine-2-carboxamide] | > 10 µM | 0.0041 µM | – | – | – |
| Cc1nc(C(C)(CC2CC2)NC(=O)c2cc(OCC(F)(F)F)c(C3CCC3)cn2)no1 (single isomer, unassigned) [Example 117, 5-cyclobutyl-N-[1-cyclopropyl-2-(5-methyl-1,2,4-oxadiazol-3-yl)propan-2-yl]-4-(2,2,2-trifluoroethoxy)pyridine-2-carboxamide] | – | 0.0024 µM | > 10 µM | – | – |
| Cc1nc(C(C)(CS(C)(=O)=O)NC(=O)c2cc(OCC(F)(F)F)c(C3CCC3)cn2)no1 (single isomer, unassigned) [Example 124, 5-cyclobutyl-N-[1-methyl-1-(5-methyl-1,2,4-oxadiazol-3-yl)-2-methylsulfonyl-ethyl]-4-(2,2,2-trifluoroethoxy)pyridine-2-carboxamide] | > 10 µM | 0.0159 µM | – | – | – |
| Cc1nc(C(C)(CS(C)(=O)=O)NC(=O)c2cc(OCC(F)(F)F)c(C3CCC3)cn2)no1 (single isomer, unassigned) [Example 125, 5-cyclobutyl-N-[1-methyl-1-(5-methyl-1,2,4-oxadiazol-3-yl)-2-methylsulfonyl-ethyl]-4-(2,2,2-trifluoroethoxy)pyridine-2-carboxamide] | – | 0.011 µM | > 10 µM | – | – |
| Cc1nc(C(C)(CS(C)(=O)=O)NC(=O)c2cc(OCC(F)(F)F)c(C3(F)COC3)cn2)no1 (single isomer, unassigned) [Example 132, 5-(3-fluorooxetan-3-yl)-N-[2-(5-methyl-1,2,4-oxadiazol-3-yl)-1-methylsulfonylpropan-2-yl]-4-(2,2,2-trifluoroethoxy)pyridine-2-carboxamide] | – | – | – | > 10 µM | 0.333 µM |
| Cc1nc(C(C)(CS(C)(=O)=O)NC(=O)c2cc(OCC(F)(F)F)c(C3(F)COC3)cn2)no1 (single isomer, unassigned) [Example 133, 5-(3-fluorooxetan-3-yl)-N-[2-(5-methyl-1,2,4-oxadiazol-3-yl)-1-methylsulfonylpropan-2-yl]-4-(2,2,2-trifluoroethoxy)pyridine-2-carboxamide] | – | – | > 10 µM | – | 0.568 µM |
| Cc1nc(C(C)(CC2CC2)NC(=O)c2cc(OCC(F)(F)F)c(C3(F)COC3)cn2)no1 (single isomer, unassigned) [Example 135, N-[1-cyclopropyl-2-(5-methyl-1,2,4-oxadiazol-3-yl)propan-2-yl]-5-(3-fluorooxetan-3-yl)-4-(2,2,2-trifluoroethoxy)pyridine-2-carboxamide] | > 10 µM | 0.144 µM | – | – | – |
| Cc1nc(C(C)(CC2CC2)NC(=O)c2cc(OCC(F)(F)F)c(C3(F)COC3)cn2)no1 (single isomer, unassigned) [Example 136, N-[1-cyclopropyl-2-(5-methyl-1,2,4-oxadiazol-3-yl)propan-2-yl]-5-(3-fluorooxetan-3-yl)-4-(2,2,2-trifluoroethoxy)pyridine-2-carboxamide] | – | 0.125 µM | > 10 µM | – | – |
| Cc1nc(C(C)(CO)NC(=O)c2cc(OCC(F)(F)F)c(C3CC3)cn2)no1 (single isomer, unassigned) [Example 140, 5-cyclopropyl-N-[1-hydroxy-2-(5-methyl-1,2,4-oxadiazol-3-yl)propan-2-yl]-4-(2,2,2-trifluoroethoxy)pyridine-2-carboxamide] | > 10 µM | 0.511 µM | – | – | – |
| Cc1nc(C(C)(CO)NC(=O)c2cc(OCC(F)(F)F)c(C3CC3)cn2)no1 (single isomer, unassigned) [Example 141, 5-cyclopropyl-N-[1-hydroxy-2-(5-methyl-1,2,4-oxadiazol-3-yl)propan-2-yl]-4-(2,2,2-trifluoroethoxy)pyridine-2-carboxamide] | – | 0.0968 µM | > 10 µM | – | – |
| Cc1nc(C(C)(CC2CC2)NC(=O)c2cc(OCC(F)F)c(C3CC3)cn2)no1 (single isomer, unassigned) [Example 154, 5-cyclopropyl-N-[1-cyclopropyl-2-(5-methyl-1,2,4-oxadiazol-3-yl)propan-2-yl]-4-(2,2-difluoroethoxy)pyridine-2-carboxamide] | > 10 µM | 0.0037 µM | – | – | – |
| Cn1nnnc1C(NC(=O)c1cc(OCC(F)(F)F)c(C2CC2)cn1)C(C)(C)C (centres unmarked) [Example 164, 5-cyclopropyl-N-[2,2-dimethyl-1-(1-methyltetrazol-5-yl)propyl]-4-(2,2,2-trifluoroethoxy)pyridine-2-carboxamide] | – | 0.0168 µM | – | – | – |
